The target in one experiment is T1, arrestin-3 (1-393) (Bos taurus, UniProt P32120).
T1 construct: gene ARRB2; residues 1-393 (stop codon at L394, deletes 394-408), pTrcHisB, E. coli BL21 Gold, purified by heparin, Q/SP and size exclusion columns; 43 kD monomer, 134 kD trimer with IP6
The experiment in a line: microscale thermophoresis, two-site fit, pre-IR fluorescence change. The experiment is classed as binding.

The target in a further experiment is His tagged JNK3α2 (UniProt P53779). The experiment in a line: pull-down; His tagged JNK3α2 (10 µg) on Ni-NTA resin, arrestin-3 (10 µg) added with and without 100 µM IP6; wash 20 mM MOPS pH 7.4, 150 mM NaCl, 25 mM imidazole; eluted with 250 mM imidazole; Coomassie and Western, densitometry.
Chain of His tagged JNK3α2 (P53779 whole entry): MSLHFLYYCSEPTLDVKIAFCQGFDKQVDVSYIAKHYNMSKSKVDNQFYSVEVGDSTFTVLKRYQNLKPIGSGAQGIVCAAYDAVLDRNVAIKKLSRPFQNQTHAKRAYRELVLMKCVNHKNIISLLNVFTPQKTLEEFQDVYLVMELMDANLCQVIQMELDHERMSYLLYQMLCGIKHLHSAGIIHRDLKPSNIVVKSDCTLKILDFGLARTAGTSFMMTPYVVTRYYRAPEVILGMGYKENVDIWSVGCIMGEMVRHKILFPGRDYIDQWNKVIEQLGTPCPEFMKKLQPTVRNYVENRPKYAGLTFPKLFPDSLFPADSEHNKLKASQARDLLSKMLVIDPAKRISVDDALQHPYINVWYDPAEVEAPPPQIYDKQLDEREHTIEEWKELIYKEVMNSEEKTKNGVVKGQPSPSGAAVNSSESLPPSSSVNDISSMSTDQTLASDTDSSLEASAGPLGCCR

As a reminder, the Kd is the constant that tells how readily two partners part at equilibrium. A high value points to a looser complex.

T1 sequence (P32120 1-393 isoform P32120-2): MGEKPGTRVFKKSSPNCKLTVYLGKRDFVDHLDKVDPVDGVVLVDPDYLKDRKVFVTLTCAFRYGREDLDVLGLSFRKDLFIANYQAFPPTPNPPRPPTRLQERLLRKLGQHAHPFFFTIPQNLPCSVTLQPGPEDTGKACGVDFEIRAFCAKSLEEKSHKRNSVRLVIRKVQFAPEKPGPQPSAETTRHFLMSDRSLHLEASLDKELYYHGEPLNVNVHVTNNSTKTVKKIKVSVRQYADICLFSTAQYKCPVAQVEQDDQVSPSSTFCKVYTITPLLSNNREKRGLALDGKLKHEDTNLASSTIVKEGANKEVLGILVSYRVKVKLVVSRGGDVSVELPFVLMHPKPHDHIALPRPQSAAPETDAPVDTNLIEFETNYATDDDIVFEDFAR

In turn, `O=P(O)(O)O[C@H]1[C@H](OP(=O)(O)O)[C@@H](OP(=O)(O)O)[C@H](OP(=O)(O)O)[C@@H](OP(=O)(O)O)[C@H]1OP(=O)(O)O` [IP6] returned a Kd at arrestin-3 (1-393) of 57 nM.

“bovine arrestin-3 (1-393) (domain or fragment)” had a fold change of bound arrestin-3 with 100 µM IP6 against without IP6 with His tagged JNK3α2 of 2 fold.

The record behind these values is article PMC5681653, “Structural basis of arrestin-3 activation and signaling” (Nature Communications, 2017).
